Usually IC50 stands for the concentration that gives 50% inhibition.

Where “and” joins values, the source holds several entries; their conditions need not be identical. Equal values may be shown once.

Data on 4 molecules can be found in PMC7182600 (Influenza and Other Respiratory Viruses, 2020).

The target in the assay is NA of B/Tokyo/UT‐AC032/2018 (G407S) (Influenza B virus, UniProt A0A1W5M8K7, G407S). The assay is classed as biochemical.

Regarding `[H]/N=C(\N)N[C@H]1C=C(C(=O)O)O[C@@H]([C@H](OC)[C@H](O)CO)[C@@H]1NC(C)=O` [Laninamivir], the “susceptibility to NA inhibitor (in words)” value is reported as “marked reduction in susceptibility”.
Still for that read-out and setting: the result for `CCC(CC)O[C@@H]1C=C(C(=O)O)C[C@H](N)[C@H]1NC(C)=O` [Oseltamivir carboxylate] reads “moderately reduced susceptibility”.
As to Peramivir, the “fold differences in IC50” value was 64 fold and 32.1 ± 12.9 (64.2) fold; the “susceptibility to NA inhibitor (in words)” value is reported as “marked reduction in susceptibility”. For the same molecule, the IC50 (read-out: IC50 values of NA inhibitors) was 32.1 nM.
Take `CC(=O)N[C@H]1[C@H]([C@H](O)[C@H](O)CO)OC(C(=O)O)=C[C@@H]1N=C(N)N` [Zanamivir]: the “susceptibility to NA inhibitor (in words)” value is given as “marked reduction in susceptibility”.
